Data as given in patent US10751423B2 (Massachusetts Institute of Technology, priority 2016, dated 2020).
Non-standard residues stand in square brackets, D forms with d. Residues, ends and D or L forms follow the SMILES beside them. *: point of attachment. Dolaproine = CO[C@@H]([C@@H]1CCCN1)[C@@H](C)C(=O)O; Dil = CC[C@H](C)[C@H](NC)[C@@H](CC(=O)O)OC; X1 = C[C@@H](N*)[C@@H](O)c1ccccc1; NMeV = CN[C@H](C(=O)O)C(C)C

How the values were obtained:
BCL-2 siRNA = assay: siRNA binding with various platinum species by MALDI-TOF-MS; conditions: 10-fold excess of platinum species
Protocol: A single-stranded siRNA (UCAGGUACUCAGUCAUCCACATT) (SEQ ID NO: 3) was mixed with OxaPt(II) at a molar ratio of 1:10 in RNAase free water (RNA final concentration: 50 μM; Pt final concentration: 500 μM; total volume: 100 μL). The reaction mixture was placed in a 37° C. incubator and 10 μL of sample were removed at various time points to obtain MALDI-TOF-MS spectra (positive model). Analogous methods were employed to obtain spectra of the reaction products of siRNA with OxaPt(IV), CisPt(II) and CisPt(IV).
MALDI/TOF MS was used to ascertain the kinetics of platinum-RNA adduct formation using BCL-2 siRNA that was incubated with a 10-fold excess of various platinum(II) or platinum(IV) species. […] AAS measurements of siRNA that had been isolated after co-incubation with various platinum species was conducted to determine the concentration of Pt-siRNA adducts formed over time.

[1] = photostability under continuous laser irradiation; type: physicochemical
Excerpt: FIG. 31D is a plot showing measurements of the photostability of various emissive components of core-shell nanoparticles under continuous irradiation. Note, the same excitation energies were utilized as in FIG. 31C; and, emission was detected using various excitation and emission filters. The photostability of DiR in THF (DiR in THF; black) was included for comparative purposes.
In addition to the emission of these extrinsic reporters, bioluminescence due to the luciferaseluciferin reaction and RFP fluorescence upon 535 nm excitation are also included in FIG. 31C, generating a spectral comparison of all reporters that were subsequently utilized for in vivo and ex vivo imaging (vide infra). Prior to embarking on comparisons of in vivo imaging with different reporters, we examined the photostability of each of the emissive components within the core-shell nanoparticles.

[2] = read-out: in vitro IC50; cited from earlier work
5′-GMP = 5′-GMP binding with various platinum species by 1HNMR; conditions: 10 mM 5′-GMP, 5 mM Pt, 37° C.
Protocol: (10 mM) 5′-GMP and (5 mM) OxaPt(II) were mixed in 700 μL of D2O/H2O (v/v=1:9), transferred to an NMR tube and placed in a 37° C. water bath for various time periods prior to ^1HNMR measurement. […] The binding kinetics of 5′-GMP to each platinum species were determined by measuring the relative amounts of free and Pt-bound 5′-GMP at each time point, integrating the ratio of the ^1HNMR peaks at 8.5 ppm to 8.09 ppm.
OxaPt(II) and CisPt(II) are known to bind to guanine (G) and adenine (A) bases in both DNA and RNA. […] Formation of Pt-(5′-GMP)2 adducts were subsequently monitored by ESI-MS (FIG. 4A and FIG. 4B) and by MALDI/TOF MS (data not shown). Differences in the kinetics of adduct formation by various platinum(II) and platinum(IV) species were subsequently studied by ^1H NMR spectroscopy under similar conditions.

## N.N.[Cl][Pt][Cl] [CisPt(II), cisplatin]
BCL-2 siRNA
  time at which Pt-siRNA adducts could be detected: ≤ 30 m

## CCCCCCCCCCCCCCCCCCN1C(=CC=CC=CC=CC2=[N+](CCCCCCCCCCCCCCCCCC)c3ccccc3C2(C)C)C(C)(C)c2ccccc21.[I-] [DiR, 1,1′-dioctadecyl-3,3,3′,3′-tetramethylindotricarbocyanine iodide]
[1]; DiR incorporated within the PCL shell of the nanoparticles, 1 h
  initial emission intensity maintained: 88%
[1]; free DiR in THF, 1 h of continuous excitation
  fluorescence decrease: over 30%

## CC[C@H](C)[C@@H]([C@@H](CC(=O)N1CCC[C@H]1[C@H](OC)[C@@H](C)C(=O)N[C@H](C)[C@@H](O)c1ccccc1)OC)N(C)C(=O)[C@@H](NC(=O)[C@@H](NC)C(C)C)C(C)C [MMAE, monomethyl auristatin E] (H-[NMeV]V[Dil][Dolaproine]-X1)
[2]
  IC50: 0.2 to 0.6 nM

## O=C1[O][Pt]2([NH][C@@H]3CCCC[C@H]3[NH]2)[O]C1=O [OxaPt(II), Oxaliplatin]
5′-GMP; 30 m incubation
  DACHPt(5′-GMP)2 adducts as share of the 5′-GMP pool: approximately 10%
5′-GMP; 6 h incubation
  DACHPt(5′-GMP)2 adducts as share of the 5′-GMP pool: > 40%
BCL-2 siRNA
  time at which Pt-siRNA adducts could be detected: 1 h
